Source: PubChem BioAssay (NCI)
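48-hour exposure; five concentrations; linearly interpolated endpoints. Abbreviation: GI50, concentration required for 50% inhibition of growth. TGI is the concentration that stops growth completely.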

Experiments:
Experiment in all cases: growth of human tumour cells (NCI), 48 h
TK-10 renal = system: TK-10 renal
SK-OV-3 ovarian = system: SK-OV-3 ovarian
786-0 renal = system: 786-0 renal
CCRF-CEM leukemia = system: CCRF-CEM leukemia
A549 NSCLC = system: A549 NSCLC
SK-MEL-28 melanoma = system: SK-MEL-28 melanoma
RPMI-8226 leukemia = system: RPMI-8226 leukemia
SNB-75 CNS = system: SNB-75 CNS
SW-620 colon = system: SW-620 colon
CAKI-1 renal = system: CAKI-1 renal

| SMILES | TGI (TK-10 renal) | TGI (SK-OV-3 ovarian) | TGI (786-0 renal) | TGI (CCRF-CEM leukemia) | TGI (A549 NSCLC) | TGI (SK-MEL-28 melanoma) | TGI (RPMI-8226 leukemia) | TGI (SNB-75 CNS) | TGI (SW-620 colon) | TGI (CAKI-1 renal) | GI50 (TK-10 renal) | GI50 (SK-OV-3 ovarian) | GI50 (786-0 renal) | GI50 (CCRF-CEM leukemia) | GI50 (A549 NSCLC) | GI50 (SK-MEL-28 melanoma) | GI50 (RPMI-8226 leukemia) | GI50 (SNB-75 CNS) | GI50 (SW-620 colon) | GI50 (CAKI-1 renal) |
| --- | --- | --- | --- | --- | --- | --- | --- | --- | --- | --- | --- | --- | --- | --- | --- | --- | --- | --- | --- | --- |
| COc1ccc(OC)c(NC(=O)C(=O)C(C(C)=O)c2nc3ccc(Cl)cc3[nH]c2=O)c1 (stereo not given) | > 50 µM | > 50 µM | > 50 µM | > 5 µM | > 50 µM | > 50 µM | > 50 µM | > 50 µM | > 50 µM | > 50 µM |  |  |  |  |  |  |  |  |  |  |
| Clc1ccc(C2N3CCCCC3[C@@H]3c4[nH]c5ccccc5c4CCN23)cc1 (stereo not given in full) | > 100 µM | > 100 µM | > 100 µM | > 100 µM | > 100 µM | > 100 µM | > 100 µM | > 100 µM | > 100 µM | > 100 µM |  |  |  |  |  |  |  |  |  |  |
| Cn1cc(-c2cnc3ccc(NC(=O)Nc4ccc(F)c(Br)c4)cc3n2)cn1 | 5.5 µM | 5.99 µM | 5.9 µM | 6.21 µM | 4.85 µM | 3.76 µM | 3.82 µM | 4.8 µM | 3.83 µM | 5.57 µM | 2090 nM | 2.24 µM | 1.98 µM | 2060 nM | 1770 nM | 1.9 µM | 1.25 µM | 1970 nM | 1.85 µM | 2.05 µM |
| CSc1ccc(C2=NN(C(C)=O)C(c3cc(C)cs3)C2)cc1 (stereo not given) | > 100 µM | > 100 µM | > 100 µM | > 100 µM | > 100 µM | > 100 µM | > 100 µM | > 100 µM | > 100 µM | > 100 µM | 26900 nM | 38.2 µM | 40 µM | 26700 nM | 27200 nM | 37 µM | 15.3 µM | 22100 nM | 38.2 µM | 28.4 µM |
| Cc1ccc(C)c(NC(=O)CC/C(=N\NC(=O)C(=O)NN)C(C)C(=O)c2ccc(O)cc2)c1 (stereo not given) | > 100 µM | > 100 µM | > 100 µM | > 100 µM | > 100 µM | > 100 µM | > 100 µM | > 100 µM | > 100 µM | > 100 µM |  |  |  |  |  |  |  |  |  |  |
| Cc1cc(N(CCOS(C)(=O)=O)CCOS(C)(=O)=O)ccc1C=Nc1ccc(-c2nc(Cc3ccccc3)sc2C)cc1 | 33.9 µM | 4.56 µM | 15.1 µM | 24.3 µM | 21.6 µM | 35.3 µM | 31.8 µM | 12.3 µM | 45.4 µM | 9.2 µM |  |  |  |  |  |  |  |  |  |  |
| Cc1nc2cccc([N+](=O)[O-])c2c(NCCCN(C)C)c1C | > 55.1 µM | > 100 µM | > 100 µM | > 75.2 µM | > 100 µM | > 100 µM | > 100 µM | > 100 µM | > 100 µM | > 100 µM |  |  |  |  |  |  |  |  |  |  |
| Cc1ccc(-c2c3c([nH]c(=O)c2C#N)-c2cc(F)ccc2OC3)cc1 | 80.9 µM | > 100 µM | > 100 µM | 7.25 µM | > 100 µM | > 100 µM | > 100 µM | > 100 µM | > 100 µM | > 100 µM | 29400 nM | 97.6 µM | 64.4 µM | 1190 nM | 55000 nM | > 100 µM | 28.3 µM | > 100000 nM | > 100 µM | 82.1 µM |
| CNC(=O)OCc1c(COC(=O)NC)c(-c2ccc(Cl)c(Cl)c2)n2c1SCC2 | 19.1 µM | 28.1 µM | > 46.8 µM | 64.9 µM | > 88 µM | 37.3 µM | 39.7 µM | 25.1 µM | 26.3 µM | 23.9 µM |  |  |  |  |  |  |  |  |  |  |
| CC1OC(n2cc(F)c(=O)[nH]c2=O)CCC1O (stereo not given) | > 100 µM | > 100 µM | > 100 µM | > 100 µM | > 100 µM | > 100 µM | > 100 µM | > 100 µM | > 100 µM | > 100 µM |  |  |  |  |  |  |  |  |  |  |
| CCCCNC1=C(C(=O)OCC)C(=O)CO1 | > 100 µM | > 100 µM | > 100 µM | > 100 µM | > 100 µM | > 100 µM | > 100 µM | > 100 µM | > 100 µM | > 100 µM |  |  |  |  |  |  |  |  |  |  |
| CN1CCN(Cc2ccc(NC(=O)c3cncc(C#Cc4cnc(N)c5ccc(C#N)cc45)c3)cc2C(F)(F)F)CC1 | 1.47 µM | 0.599 µM | 1.01 µM | 2.05 µM | 0.919 µM | 0.519 µM | 1.25 µM | 0.876 µM | 1.45 µM | 0.206 µM | 210 nM | 0.0212 µM | 0.111 µM | 80.3 nM | 35.3 nM | 0.0273 µM | 0.0775 µM | 123 nM | 0.059 µM | 0.0175 µM |
| Cc1c(C(=O)N/N=C/c2ccc(Cl)cc2)nnn1-c1ccnc2c(C(F)(F)F)cccc12 | 8.93 µM | 25.2 µM | 37.8 µM | > 100 µM | 4.63 µM | 38.5 µM | 31.1 µM | 5.18 µM | 47.6 µM | 45.1 µM | 2600 nM | 11.6 µM | 18.5 µM | 14800 nM | 2100 nM | 14.4 µM | 4.2 µM | 2630 nM | 5.09 µM | 17.6 µM |
